For nine compounds, IC50 and RRI results are on record in ChEMBL document CHEMBL1139528, “Molecular determinants of topoisomerase I poisoning by lamellarins: comparison with camptothecin and structure-activity relationships” (J Med Chem, 2005).

The test system of assay [1] is CCRF-CEM. In words: Inhibitory concentration against CEM cell growth after incubation in liquid medium for 72 h. The format is functional, cell-based. The conditions noted are these: Homo sapiens.
Assay [2] in a line: Inhibitory concentration against CEM/C2 cell growth after incubation in liquid medium for 72 h. The format is functional, cell-based. The conditions noted are these: Homo sapiens, CEM/C2, 72 h.
Assay [3] deals with CCRF-CEM. In words: Ratio of IC50 against CPT-resistant cell line to that of CPT-sensitive cell line expressed as relative resistant index. The format is functional, Homo sapiens.

Each structure is given as a SMILES string.

For the compound `COc1cc(-c2c3c4ccccc4oc(=O)c3n3ccc4cc(O)c(OC)cc4c23)ccc1O`, the IC50 (commonly the concentration at which inhibition is half-maximal) in the assay on CCRF-CEM [1] was determined as 2230 nM; in assay [2] it was 11000 nM. The RRI in the assay on CCRF-CEM [3] was 5.

With `COc1ccc2oc(=O)c3c(c(-c4ccc(O)c(OC)c4)c4c5cc(OC)c(O)cc5ccn43)c2c1`, the values for the IC50 (with CCRF-CEM [1]; in assay [2]) were 520 nM and 6250 nM, respectively. The RRI in the assay with CCRF-CEM [3] stood at 12.

For `COc1ccc(-c2c3c4cc5c(cc4oc(=O)c3n3ccc4cc(OC)c(OC)cc4c23)OCO5)cc1OC`, the IC50 (with CCRF-CEM [1]; in assay [2]) was above 100000 nM throughout.

Take `COc1cc2c(cc1O)oc(=O)c1c2c(-c2ccc(OC)c(OC)c2)c2c3cc(OC)c(OC)cc3ccn21`: the IC50 in the assay on CCRF-CEM [1] came out at 3030 nM; in assay [2] it was 5550 nM. Besides, the RRI with CCRF-CEM [3] is listed as 2.

For `O=c1oc2ccccc2c2c(-c3ccc(O)c(O)c3)c3c4cc(O)c(O)cc4ccn3c12`, the IC50 with CCRF-CEM [1] was 430 nM; in assay [2], 950 nM. For the same compound, in the assay with CCRF-CEM [3], the RRI stood at 2.

As to `CC(=O)Oc1ccc(-c2c3c4cc(OC(C)=O)c(OC(C)=O)cc4oc(=O)c3n3ccc4cc(OC(C)=O)c(OC(C)=O)cc4c23)cc1OC(C)=O`, the IC50 came to 1950 nM in the assay on CCRF-CEM [1] and 6930 nM in assay [2]. Besides, in the assay on CCRF-CEM [3], the RRI worked out at 4.

With `COc1cc(-c2c3c4ccc(O)cc4oc(=O)c3n3ccc4cc(O)c(OC)cc4c23)ccc1O`, the 50% inhibitory concentration (IC50) in the assay with CCRF-CEM [1] came out at 17 nM; in assay [2] it was 2740 nM. Moreover, the RRI in the assay on CCRF-CEM [3] stood at 164.

Regarding `CC[C@@]1(O)C(=O)OCc2c1cc1n(c2=O)Cc2cc3ccccc3nc2-1` [CAMPTOTHECIN], the IC50 in the assay with CCRF-CEM [1] was determined as 0.84 nM; in assay [2] it was 5380 nM. The RRI in the assay on CCRF-CEM [3] stood at 6400.

Turning to `COc1cc(-c2c3c4cc(OC)c(O)cc4oc(=O)c3n3ccc4cc(O)c(OC)cc4c23)ccc1O` [LAMELLARIN D], the IC50 turned out to be 5 nM with CCRF-CEM [1] and 720 nM in assay [2]. Further, the RRI in the assay on CCRF-CEM [3] worked out at 144.
